Test results from patent US5064860A, “Method of inhibiting superoxide generation” (G. D. Searle & Co., priority 1990, dated 1991).
Entries after “also recorded” stand apart in the source; their conditions may differ. Like-named read-outs stand apart in the source and are kept apart here.

What was measured:
[1] = biological target: T1, 5-lipoxygenase (Rattus norvegicus, UniProt P12527); test: Inhibition of 5-lipoxygenase, in vitro (5-HETE synthesis from [1-14C]-arachidonic acid, RBL-1 supernatant); type: biochemical; conditions: for IC50: RBL-1 100,000×g supernatant
T1 construct: Rat Basophilic Leukemia Cell Homogenate (RBL-1) serves as a 5-lipoxygenase enzyme source; endogenous in cells; host or cells: RBL-1 (rat basophilic leukemia) cells, 100,000×g supernatant of homogenate
T1 sequence (P12527 1-673): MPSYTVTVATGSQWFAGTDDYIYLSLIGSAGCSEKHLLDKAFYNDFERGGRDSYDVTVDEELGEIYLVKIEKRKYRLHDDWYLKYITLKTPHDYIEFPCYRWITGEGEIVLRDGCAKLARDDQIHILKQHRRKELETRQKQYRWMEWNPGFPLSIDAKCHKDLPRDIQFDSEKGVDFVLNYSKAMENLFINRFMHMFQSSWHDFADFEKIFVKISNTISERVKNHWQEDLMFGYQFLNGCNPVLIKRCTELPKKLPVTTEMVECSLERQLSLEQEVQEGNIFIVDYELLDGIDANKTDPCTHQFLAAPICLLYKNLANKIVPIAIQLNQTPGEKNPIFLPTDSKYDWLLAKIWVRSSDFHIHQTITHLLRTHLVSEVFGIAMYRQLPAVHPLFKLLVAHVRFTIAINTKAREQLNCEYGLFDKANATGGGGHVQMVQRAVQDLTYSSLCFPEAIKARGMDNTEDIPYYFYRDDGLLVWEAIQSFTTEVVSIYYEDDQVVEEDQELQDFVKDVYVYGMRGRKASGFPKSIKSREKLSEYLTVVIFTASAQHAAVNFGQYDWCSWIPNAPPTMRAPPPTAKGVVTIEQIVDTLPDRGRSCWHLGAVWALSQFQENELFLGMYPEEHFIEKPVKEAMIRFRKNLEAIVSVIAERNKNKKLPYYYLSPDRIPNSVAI
Procedure: Inhibition of 5-lipoxygenase, in vitro:
anti-inflammatory, anti-allergy activities.
The 100,000×g supernatant fraction of Rat Basophilic Leukemia Cell Homogenate (RBL-1) serves as a 5-lipoxygenase enzyme source. The enzyme is incubated with [1-^14 C)-arachidonic acid and Ca++ in the presence and absence of test compound. The product of 5-lipoxygenase, 5-hydroxyeicosatetraenoic acid (5-HETE), is separated by thin-layer chromatography and measured by radioactivity. A compound inhibiting 5-HETE synthesis by 30% or more is considered active at that concentration.

[2] = test system: FMLP-stimulated human neutrophils; test: Human neutrophil superoxide generation, FMLP-stimulated (cytochrome C reduction); type: cell-based; conditions: for IC50: read-out: Inhibition of FMLP Induced Superoxide IC50
Procedure: Human neutropil suproxide generation: Superoxide generation by formyl-methionyl-leucyl-phenylalanine (FMLP)-stimulated neutrophils was quantitated by the reduction of cytochrome C (Badwey, J. A., Curnutte, J. T. and Karnovsky, M. L., cis-Polyunsaturated fatty acids induce high levels of superoxide production by human neutrophils. J. Biol. Chem. 256: 12640-12643, 1981.) To 5 million neutrophils in 2.85 ml of Krebs-Ringer phosphate buffer, pH 7.2, 50 μl of inhibitor (in 10% DMSO/buffer), and 50 ul ferricytochrome C (5 mM, stock) were added and preincubated for 3 minutes at 37° C. Absorption measurements at 550 nm were recorded at start of preincubation. Fifty ul FMLP (6 uM, stock) was added to initiate reaction. A plateau was reached within 3 minutes and this reading--initial reading (before addition of FMLP) was used to calculate nanomoles of superoxide generated based on a molar extinction coefficient of 2.1×10^4 cm^-1 mole^-1.
Isolation of human neutrophils: Human neutrophils were isolated from freshly drawn blood of healthy donors. Two ml of 5% dextran (MW 200,000-300,000) in saline was added to 10 ml aliquots of blood, mixed and placed upright for 45 min. at 37° C. Approx. 8-10 ml of the plasma-white cell suspension from the dextran sedimentation was layered on 3 ml of Ficol-paque in a ml tube and centrifuged at 400 g for 30 min. The supernate, containing plasma and platelets, was discarded by aspiration, and the pellet, containing predominantly neutrophils, was resuspended in 1 ml saline. The suspension was transferred to a clean tube, and pooled with other aliquots of blood treated similarly. The pooled suspension was centrifuged at 350 g for 5 min. and supernate discarded. The pellet was resuspended in 5 ml of 0.05% NaCl with a plastic Pasteur pipette for 25 seconds to lyse contaminating red cells, then 5 ml of 1.75% NaCl added to regain isotonicity. The red cell lysing procedure was repeated, the cells suspended in appropriate buffer (depending on assay) and counted.

[3] = Neutrophil, human neutrophils, FMLP

Row | SMILES | IC50 [1] | IC50 [2, 3] | also measured
1 | C[C@H](Sc1cc(C(C)(C)C)c(O)c(C(C)(C)C)c1)[C@@H](C)OCC(=O)O (relative stereo) [Example 9, 11, (±)[2S*-[[3,5-bis(1,1-dimethyl-ethyl)-4-hydroxyphenyl]thio]-1R*-methylpropoxy]acetic acid] | 4.9 µM | 11 µM | –
2 | C[C@@H](OCC(=O)O)[C@H](C)S(=O)(=O)c1cc(C(C)(C)C)c(O)c(C(C)(C)C)c1 (relative stereo) [Example 13, (±)[2S*-[[3,5-bis(1,1-dimethylethyl)-4-hydroxyphenyl]sulfonyl]-1R*- methylpropoxy]acetic acid] | – | ~30 µM | inhibition at 100 µM [1]: 4%
3 | C[C@H](Sc1cc(C(C)(C)C)c(O)c(C(C)(C)C)c1)[C@@H](C)OCC(=O)O (single isomer, unassigned) [Example 18, (+)[2S*-[[3,5-bis(1,1-dimethylethyl)-4-hydroxyphenyl]thio]-1R*-methylpropoxy]acetic acid] | 3.5 µM | 10 µM | –
4 | C[C@H](Sc1cc(C(C)(C)C)c(O)c(C(C)(C)C)c1)[C@@H](C)OCC(=O)O (single isomer, unassigned) [Example 17, (-)[2S*-[[3,5-bis(1,1-dimethylethyl)-4-hydroxyphenyl]thio]-1R*-methylpropoxy]acetic acid] | 4.3 µM | – | IC50 ([2]; human neutrophils, FMLP): 10 µM
5 | CC(C)(C)c1cc(SCCSCC(=O)O)cc(C(C)(C)C)c1O [Example 4, 5, [[2-[[3,5-bis(1,1-dimethylethyl)-4-hydroxyphenyl]thio]ethyl]thio]aceticacid] | 3.3 µM | 5 µM | –
6 | CN(CCc1ccccn1)C(=O)CCSc1cc(C(C)(C)C)c(O)c(C(C)(C)C)c1 [Formula IV, reference compound] | 0.32 µM | – | 5-lipoxygenase inhibition, result in words [1]: inhibited 5-lipoxygenase; activation at 5 µM ([2]; Homo sapiens, Neutrophil, at 5 μm, read-out: increase in superoxide generated by neutrophils): 50%; activation at 10 µM ([2]; Homo sapiens, Neutrophil, at 10 μm, read-out: increase in superoxide generated by neutrophils): 227%; FMLP Induced Superoxide, result in words ([2]; human neutrophils, FMLP): Stimulates; also recorded: did not inhibit superoxide generation
7 | C[C@@H](OCC(=O)O)[C@H](C)[S+]([O-])c1cc(C(C)(C)C)c(O)c(C(C)(C)C)c1 (relative stereo) [Example 12, (±)[2S*-[[3,5-bis(1,1-dimethylethyl)-4-hydroxyphenyl]sulfinyl]-1R*- methylpropoxy]acetic acid] | – | ~50 µM | inhibition at 100 µM [1]: 12%
